Measured values taken from ChEMBL document CHEMBL3879915, “Methods of inhibiting PRMT5” (2014).

Each molecule was assayed against PRMT5/MEP50 complex (Homo sapiens, UniProt O14744) (assay: Inhibition of recombinant human fetal brain FLAG-tagged PRMT5/full length human testis 6His-tagged MEP50 expressed in baculovirus infected insect Sf9 cells using human histone H4 (1 to 15 residues) as substrate preincubated for 30 mins followed by [3H]-SAM addition).
Sequence of PRMT5/MEP50 complex (O14744 whole entry, the tested form may be a part): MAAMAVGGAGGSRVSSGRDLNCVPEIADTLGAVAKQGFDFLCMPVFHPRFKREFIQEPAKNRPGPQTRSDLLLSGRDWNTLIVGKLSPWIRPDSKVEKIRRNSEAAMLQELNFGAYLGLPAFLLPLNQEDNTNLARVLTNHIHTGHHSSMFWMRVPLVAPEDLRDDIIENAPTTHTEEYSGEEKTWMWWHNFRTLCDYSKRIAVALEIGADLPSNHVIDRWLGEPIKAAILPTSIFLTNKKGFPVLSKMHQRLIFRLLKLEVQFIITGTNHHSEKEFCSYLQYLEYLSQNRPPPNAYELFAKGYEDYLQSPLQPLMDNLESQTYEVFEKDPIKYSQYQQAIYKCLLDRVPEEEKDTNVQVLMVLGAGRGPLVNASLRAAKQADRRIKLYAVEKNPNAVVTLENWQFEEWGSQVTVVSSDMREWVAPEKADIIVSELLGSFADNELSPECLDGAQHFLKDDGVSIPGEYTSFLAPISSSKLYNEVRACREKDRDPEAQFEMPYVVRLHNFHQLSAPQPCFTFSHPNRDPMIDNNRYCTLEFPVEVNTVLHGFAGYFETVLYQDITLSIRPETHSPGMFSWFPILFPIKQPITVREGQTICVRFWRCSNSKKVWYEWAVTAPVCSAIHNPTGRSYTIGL
Sequence of PRMT5/MEP50 complex (Q9BQA1 whole entry, further chain, the tested form may be a part): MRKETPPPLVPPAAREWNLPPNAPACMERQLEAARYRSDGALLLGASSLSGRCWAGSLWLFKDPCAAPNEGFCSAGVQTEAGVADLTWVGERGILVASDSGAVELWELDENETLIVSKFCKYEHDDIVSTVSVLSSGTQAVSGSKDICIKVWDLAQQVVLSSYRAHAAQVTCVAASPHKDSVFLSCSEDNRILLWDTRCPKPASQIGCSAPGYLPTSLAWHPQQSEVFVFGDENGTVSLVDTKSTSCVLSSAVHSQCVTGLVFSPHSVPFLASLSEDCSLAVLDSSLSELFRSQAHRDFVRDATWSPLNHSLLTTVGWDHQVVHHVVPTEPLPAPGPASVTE

Row | IC50 | Structure (SMILES)
1 | < 100 nM | O=C(NCC(O)CN1CCc2ccccc2C1)c1cc(NC2CCOCC2)ccn1 (configuration not stated)
2 | 1000 to 10000 nM | Nc1ncccc1OCC(=O)NCC(O)CN1CCc2ccccc2C1 (configuration not stated)
3 | 1000 to 10000 nM | CC(C)(C)OC(=O)Nc1ccccc1OCC(=O)NCC(O)CN1CCc2ccccc2C1 (configuration not stated)
4 | 1000 to 10000 nM | O=C1CC(c2ccccc2)CCN1C[C@H](O)CN1CCc2ccccc2C1 (some centres not stated)
5 | 1000 to 10000 nM | O=C(COc1ccc(F)cc1)NCC(O)CN1CCc2ccccc2C1 (configuration not stated)
6 | 1000 to 10000 nM | O=C1CN(Cc2ccccc2)CCN1CC(O)CN1CCc2ccccc2C1 (configuration not stated)
7 | 1000 to 10000 nM | CN(C)c1cncc(OCC(=O)NCC(O)CN2CCc3ccccc3C2)c1 (configuration not stated)
8 | 1000 to 10000 nM | O=C(COc1cccc(NC2CCOCC2)n1)NCC(O)CN1CCc2ccccc2C1 (configuration not stated)
9 | 101 to 1000 nM | OC(COc1cccc(CNC2CCCCC2)c1)CN1CCc2ccccc2C1 (configuration not stated)
10 | 1000 to 10000 nM | O=C(COC1CCOCC1)NCC(O)CN1CCc2ccccc2C1 (configuration not stated)
11 | 101 to 1000 nM | OC(COc1cccc(CNC2CCOCC2)c1)CN1CCc2ccccc2C1 (configuration not stated)
12 | 101 to 1000 nM | OC(COCc1cc(-c2ccc(Cl)cc2)no1)CN1CCc2ccccc2C1 (configuration not stated)
13 | < 100 nM | O=C(NCC(O)CN1CCc2ccccc2C1)c1ccc(OC2CCOCC2)cc1 (configuration not stated)
14 | 1000 to 10000 nM | O=C(COc1ccccc1)NC[C@@H](O)CN1CCc2ccccc2C1
15 | 1000 to 10000 nM | O=C1CC(c2ccccc2)CCN1C[C@@H](O)CN1CCc2ccccc2C1 (some centres not stated)
16 | 1000 to 10000 nM | O=C(NC[C@@H](O)CN1CCc2ccccc2C1)c1ccccc1
17 | 1000 to 10000 nM | OC(COc1ccccc1C1CCCCC1)CN1CCc2ccccc2C1 (configuration not stated)
18 | 1000 to 10000 nM | OC(COc1cccc(CN2CCCCC2)c1)CN1CCc2ccccc2C1 (configuration not stated)
19 | 1000 to 10000 nM | CN1CCC(c2ccccc2OCC(=O)NCC(O)CN2CCc3ccccc3C2)C1 (configuration not stated)
20 | 1000 to 10000 nM | O=C(COc1cccc2[nH]c(=O)cnc12)NCC(O)CN1CCc2ccccc2C1 (configuration not stated)
21 | 1000 to 10000 nM | OC(COC1CCCN(c2ccccc2)C1)CN1CCc2ccccc2C1 (configuration not stated)
22 | 101 to 1000 nM | OC(COc1ccc(OCC(O)CN2CCc3ccccc3C2)cc1)CN1CCc2ccccc2C1 (configuration not stated)
23 | 101 to 1000 nM | O=C(NCC(O)CN1CCc2ccccc2C1)c1cc(NC2CCOCC2)ccc1F (configuration not stated)
24 | 1000 to 10000 nM | NS(=O)(=O)c1cccc(OCC(=O)NCC(O)CN2CCc3ccccc3C2)c1 (configuration not stated)
25 | 1000 to 10000 nM | O=C(COc1ccccc1C1CNC1)NCC(O)CN1CCc2ccccc2C1 (configuration not stated)

Row | IC50 | Structure (SMILES)
26 | 1000 to 10000 nM | O=C1CN(C2CCOCC2)CCN1CC(O)CN1CCc2ccccc2C1 (configuration not stated)
27 | 1000 to 10000 nM | C[C@H](Oc1cccc2cccnc12)C(=O)NC[C@@H](O)CN1CCc2ccccc2C1
28 | 101 to 1000 nM | O=C(COC1CCCCC1)NCC(O)CN1CCc2ccccc2C1 (configuration not stated)
29 | 1000 to 10000 nM | CS(=O)(=O)N1CCN(CC(O)CN2CCc3ccccc3C2)C(=O)C1 (configuration not stated)
30 | 101 to 1000 nM | OC(COc1cccc(CNc2cc[nH]n2)c1)CN1CCc2ccccc2C1 (configuration not stated)
31 | 101 to 1000 nM | CC(C)(Oc1ccccc1)C(=O)NCC(O)CN1CCc2ccccc2C1 (configuration not stated)
32 | > 10000 nM | CC(=O)Nc1ncccc1OCC(=O)NCC(O)CN1CCc2ccccc2C1 (configuration not stated)
33 | > 10000 nM | CN(C)c1cccnc1OCC(=O)NCC(O)CN1CCc2ccccc2C1 (configuration not stated)
34 | 10000 to 50000 nM | Cc1cccc(N2CCN(CC(O)CN3CCc4ccccc4C3)C(=O)C2)c1 (configuration not stated)
35 | > 10000 nM | O=C(COc1cccc2cccnc12)NCC(O)CN1Cc2ccccc2C(F)(F)C1 (configuration not stated)
36 | > 50000 nM | CN1CCN(CC(O)CN2CCc3ccccc3C2)C(=O)C1 (configuration not stated)
37 | 1000 to 10000 nM | OC(COc1ccccc1-c1ccno1)CN1CCc2ccccc2C1 (configuration not stated)
38 | 1000 to 10000 nM | O=C(CCc1ccccc1)NCC(O)CN1CCc2ccccc2C1 (configuration not stated)
39 | 101 to 1000 nM | CN(c1cccc(C(=O)NCC(O)CN2CCc3ccccc3C2)c1)C1CCOCC1 (configuration not stated)
40 | > 50000 nM | CC(=O)Nc1cccnc1OCC(=O)NCC(O)CN1CCc2ccccc2C1 (configuration not stated)
41 | > 50000 nM | CC(Oc1ccccc1S(N)(=O)=O)C(=O)NCC(O)CN1CCc2ccccc2C1 (configuration not stated)
42 | 1000 to 10000 nM | NS(=O)(=O)c1ccc(OCC(=O)NCC(O)CN2CCc3ccccc3C2)cc1 (configuration not stated)
43 | 1000 to 10000 nM | OC(COc1cccc2ccc(N3CCOCC3)nc12)CN1CCc2ccccc2C1 (configuration not stated)
44 | 10000 to 50000 nM | O=C(Cc1ccncc1)NCC(O)CN1CCc2ccccc2C1 (configuration not stated)
45 | 101 to 1000 nM | O=C(NCC(O)CN1CCc2ccccc2C1)c1cccc(NC2COC2)c1 (configuration not stated)
46 | 1000 to 10000 nM | CN(C)c1ccc(N2CCN(C[C@H](O)CN3CCc4ccccc4C3)C(=O)C2)cc1
47 | 101 to 1000 nM | O=C(NCC(O)CN1CCc2ccccc2C1)c1cccc(CN2CCOCC2)c1 (configuration not stated)
48 | 1000 to 10000 nM | O=C(NC[C@@H](O)CN1CCc2ccccc2C1)Nc1ccccc1
49 | 1000 to 10000 nM | NC(=O)c1ccc(OCC(=O)NCC(O)CN2CCc3ccccc3C2)cc1 (configuration not stated)

The next lines start with the molecule.

Row | Structure (SMILES) | IC50
50 | O=C1CN(Cc2ccccn2)CCN1CC(O)CN1CCc2ccccc2C1 (configuration not stated) | 1000 to 10000 nM
51 | CC(=O)N1CCN(CC(O)CN2CCc3ccccc3C2)C(=O)C1 (configuration not stated) | 1000 to 10000 nM
52 | OC(COc1ccc(Cc2ccccc2)cc1)CN1CCc2ccccc2C1 (configuration not stated) | 101 to 1000 nM
53 | CS(=O)(=O)Nc1cccnc1OCC(=O)NCC(O)CN1CCc2ccccc2C1 (configuration not stated) | 1000 to 10000 nM
54 | O=C(NCC(O)CN1CCc2ccccc2C1)c1cccc(C(=O)N2CCOCC2)c1 (configuration not stated) | 1000 to 10000 nM
55 | CS(=O)(=O)c1ccc(OCC(=O)NCC(O)CN2CCc3ccccc3C2)cc1 (configuration not stated) | 1000 to 10000 nM
56 | CC(=O)Nc1cncc(OCC(=O)NCC(O)CN2CCc3ccccc3C2)c1 (configuration not stated) | > 10000 nM
57 | O=C(COc1ccccc1OCCN1CCOCC1)NC[C@@H](O)CN1CCc2ccccc2C1 | 1000 to 10000 nM
58 | O=C(COc1ccccc1-c1c[nH]cn1)NCC(O)CN1CCc2ccccc2C1 (configuration not stated) | 10000 to 50000 nM
59 | O=c1cc(Nc2ccccc2)ccn1C[C@H](O)CN1CCc2ccccc2C1 | 1000 to 10000 nM
60 | O=C1COCCN1CC(O)CN1CCc2ccccc2C1 (configuration not stated) | 1000 to 10000 nM
61 | CS(=O)(=O)Nc1ccccc1C(=O)NCC(O)CN1CCc2ccccc2C1 (configuration not stated) | 1000 to 10000 nM
62 | COc1cc(NC2CCOCC2)cc(C(=O)NCC(O)CN2CCc3ccccc3C2)c1 (configuration not stated) | 101 to 1000 nM
63 | O=C1CN(Cc2cccnc2)CCN1CC(O)CN1CCc2ccccc2C1 (configuration not stated) | 1000 to 10000 nM
64 | O=C(Cc1ccccc1)NC[C@@H](O)CN1CCc2ccccc2C1 | 10000 to 50000 nM
65 | O=C(CC1CCCCC1)NC[C@H](O)CN1CCc2ccccc2C1 | 1000 to 10000 nM
66 | CN(CC(O)CN1CCc2ccccc2C1)C(=O)CCc1ccccc1 (configuration not stated) | 1000 to 10000 nM

Row | Structure (SMILES) | IC50
67 | CC(Nc1cccc(C(=O)NCC(O)CN2CCc3ccccc3C2)c1)C1CCOCC1 (configuration not stated) | 101 to 1000 nM
68 | OC(COc1ccccc1N1CCNCC1)CN1CCc2ccccc2C1 (configuration not stated) | 10000 to 40000 nM
69 | CC1(C)CC(Nc2cccc(C(=O)NCC(O)CN3CCc4ccccc4C3)c2)CCO1 (configuration not stated) | 101 to 1000 nM
70 | OC(COc1cccc(CNC2CCNCC2)c1)CN1CCc2ccccc2C1 (configuration not stated) | 1000 to 10000 nM
71 | O=c1cccc(CC(O)CN2CCc3ccccc3C2)[nH]1 (configuration not stated) | 10000 to 50000 nM
72 | O=C(Cc1ccccc1)NC[C@H](O)CN1CCc2ccccc2C1 | 101 to 1000 nM
73 | O=C(COc1cccc2c1CCCN2)NCC(O)CN1CCc2ccccc2C1 (configuration not stated) | 101 to 1000 nM
74 | NS(=O)(=O)c1ccccc1C(=O)NCC(O)CN1CCc2ccccc2C1 (configuration not stated) | 1000 to 10000 nM
75 | CN(CC(O)CN1CCc2ccccc2C1)C(=O)COc1ccccc1 (configuration not stated) | 10000 to 50000 nM
76 | O=C(CC1CCCCC1)NC[C@@H](O)CN1CCc2ccccc2C1 | 10000 to 50000 nM
77 | CS(=O)(=O)Nc1ncccc1OCC(=O)NCC(O)CN1CCc2ccccc2C1 (configuration not stated) | > 10000 nM
78 | O=C(NC[C@H](O)CN1CCc2ccccc2C1)Oc1ccccc1 | 1000 to 10000 nM
79 | O=C(NC1CCOCC1)C1CC(=O)N(CC(O)CN2CCc3ccccc3C2)C1 (configuration not stated) | > 10000 nM
80 | O=C(NCC(O)CN1CCc2ccccc2C1)c1cncc(NC2CCOCC2)c1 (configuration not stated) | < 100 nM
81 | CN1CC(c2ccccc2OCC(=O)NCC(O)CN2CCc3ccccc3C2)C1 (configuration not stated) | 1000 to 10000 nM
82 | O=C(COc1cccc2c1CCCN2Cc1ccccc1)NCC(O)CN1CCc2ccccc2C1 (configuration not stated) | < 100 nM
